Measurements as given in patent publication US20250333371A1, “COMPOUNDS” (PSYLO PTY LTD, priority 2022, published 2025).
Where “and” joins values, the source holds several entries; their conditions need not be identical. Identical values can stand only once. Like-named read-outs stand apart in the source and are kept apart here.

Legend:
5-HT2A = molecular target: T1, 5-HT2A (Homo sapiens, UniProt P28223); assay: FLIPR Ca2+ flux functional assay, 5-HT2A receptor (stably transfected HEK293); type: cell-based; conditions: agonist activity, Ca2+ flux, HEK293
T1 construct: host or cells: HEK293
T1 sequence (P28223 whole entry): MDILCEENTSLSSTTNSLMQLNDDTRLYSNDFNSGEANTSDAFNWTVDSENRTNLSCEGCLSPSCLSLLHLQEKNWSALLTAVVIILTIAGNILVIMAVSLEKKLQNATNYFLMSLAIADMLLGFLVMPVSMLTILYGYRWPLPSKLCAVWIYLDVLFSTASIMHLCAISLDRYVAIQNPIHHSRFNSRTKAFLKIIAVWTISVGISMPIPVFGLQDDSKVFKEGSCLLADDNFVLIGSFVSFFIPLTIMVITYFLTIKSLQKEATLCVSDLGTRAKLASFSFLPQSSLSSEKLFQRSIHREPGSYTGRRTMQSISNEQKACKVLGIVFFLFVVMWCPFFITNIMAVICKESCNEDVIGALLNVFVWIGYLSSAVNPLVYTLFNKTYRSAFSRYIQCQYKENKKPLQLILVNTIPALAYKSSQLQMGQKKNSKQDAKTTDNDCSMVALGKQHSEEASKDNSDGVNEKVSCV
Method: (§1) Activity at 5-HT2A, 5-HT2B and 5-HT2C receptors was determined using a FLIPR Ca^2+ flux assay at WuXi AppTec Co. Ltd. (Hong Kong) Discovery Biology Unit according to their standard protocols. Briefly, stably transfected cells expressing the receptor of interest (HEK293 for 5-HT2A and 5-HT2C; CHO-K1 for 5-HT2B) were grown and plated in a 384 well plate and incubated at 37° C. and 5% CO2 overnight. A 250 mM stock solution of probenecid in FLIPR calcium assay buffer (10 mL) was freshly prepared and combined with a fluorescent dye (Fluo-4 Direct) to give a final assay concentration of 2.5 mM. Reference compounds were 4-fold serially diluted and the screening compounds were 3-fold serially diluted in 100% DMSO for 10 points using Agilent Bravo, and 750 nL was added to a 384 well compound plate using Echo along with 30 μL assay buffer. The fluorescent dye was then added to the assay plate along with assay buffer to a final volume of 40 μL. The cell plate was incubated for 50 min at 37° C. and 5% CO2 and placed into the FLIPR Tetra along with the compound plate. 10 μL of references and compounds were then transferred from the compound plate into the cell plate and the fluorescent signal was read.

5-HT2C = molecular target: T2, 5-HT2C (Homo sapiens, UniProt P28335); assay: FLIPR Ca2+ flux functional assay, 5-HT2C receptor (stably transfected HEK293); type: cell-based; conditions: agonist activity, Ca2+ flux, HEK293
T2 construct: host or cells: HEK293
T2 sequence (P28335 33-458): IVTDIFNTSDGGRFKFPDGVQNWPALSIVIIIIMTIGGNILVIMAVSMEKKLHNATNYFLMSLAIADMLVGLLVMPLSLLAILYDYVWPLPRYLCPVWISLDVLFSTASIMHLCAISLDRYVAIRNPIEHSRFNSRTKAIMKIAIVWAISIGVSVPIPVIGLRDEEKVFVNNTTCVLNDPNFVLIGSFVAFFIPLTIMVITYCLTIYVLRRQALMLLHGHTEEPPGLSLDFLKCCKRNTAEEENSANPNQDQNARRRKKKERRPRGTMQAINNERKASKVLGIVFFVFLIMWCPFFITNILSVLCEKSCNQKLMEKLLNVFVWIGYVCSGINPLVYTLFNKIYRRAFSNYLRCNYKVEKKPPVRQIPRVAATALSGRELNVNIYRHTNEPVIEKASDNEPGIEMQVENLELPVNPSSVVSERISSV
Method: as §1

[1] = In vivo pharmacokinetics: plasma and brain exposure after IP administration; design: species or system male C57BL/6 mice; conditions: for B:P Ratio Individual / Plasma Concentration (μM) Individual / concentration at 0.5 h / concentration at 0.083 h / concentration at 4 h / Kp at 0.083 h / Kp at 0.5 h / Kp at 4 h / Kp: 10 mg/kg; for Kp at 0.083 h / Kp at 0.5 h / Kp at 4 h / Kp: brain/plasma
Method: The study was conducted using established procedures in accordance with the Australian Code of Practice for the Care and Use of Animals for Scientific Purposes, and the study protocols were reviewed and approved by the Monash Institute of Pharmaceutical Sciences Animal Ethics Committee.
The systemic exposure of selected examples was studied in non-fasted male C57BL/6 mice weighing between 22.3-26.2 g. Mice had access to food and water ad libitum throughout the pre- and post-dose sampling period.
On the day of dosing, the formulation of each compound was prepared by dissolving solid compound in phosphate buffer saline (50 mM) using vortexing, creating colourless solutions (pH 6.1-6.3) for each compound.
Compounds were dosed to mice by IP injection (10 mL/kg dose volume via a 27G needle; n=9 mice per compound) and blood samples were collected at 5 and 30 min; 1, 2 and 4 h post-dose (n=3 mice per time point for each compound). A maximum of three blood samples were obtained from each mouse, with plasma samples being taken via submandibular bleed (approximately 120 μL). Once collected, blood samples were centrifuged immediately, supernatant plasma was removed, and stored at −80° C. until analysis by LCMS. In addition, at the 5 and 30 min and 4 h post-dose time points, the whole brain was rapidly removed from the carcass soon after the blood collection. The whole brains were blotted to remove excess blood, placed into pre-weighed polypropylene vials, and weighed. The brains were snap frozen in dry ice and subsequently stored frozen (−80° C.) until analysis.
Concentrations of test compound in plasma and tissue samples were determined using an LCMS/MS method validated for linearity, accuracy, precision, matrix factor and recovery (Table 2).
Test compound standard solutions were diluted from a concentrated stock solution (1 mg/mL in DMSO) using 50% acetonitrile in water (v/v) and a calibration curve was prepared in a matched matrix to the test samples.
Plasma: The plasma calibration curve was prepared by spiking aliquots of blank mouse plasma (25 μL) with test compound standard solutions (5 μL) and internal standard solution (5 μL of diazepam, 5 μg/mL in 50% acetonitrile in water). Test plasma samples (25 μL) were thawed, mixed, and then spiked with internal standard solution (5 μL). Plasma protein precipitation was performed by addition of acetonitrile (3-fold volume ratio) and thorough vortex mixing. Samples were centrifuged (RCF=9391×g) for 3 minutes and the supernatant (90 μL) was collected for analysis.
Tissue: Pre-weighed tissue samples (brain) were homogenised using a glass rod in buffer containing an EDTA/potassium fluoride solution (0.1 M/4 mg/mL) as a stabilisation cocktail to minimise the potential for ex vivo degradation (3 mL cocktail/g tissue). The tissue homogenate was briefly centrifuged (RCF=79×g) for 10 seconds to separate the foam layer before transferring an aliquot of the tissue homogenate (200 μL) to a fresh Eppendorf tube for sample extraction. Calibration standards were prepared by spiking blank brain homogenate (200 μL) with the solution standards (10 μL) and the internal standard (10 μL). Study samples were similarly prepared, except that acetonitrile (10 μL) was added instead of solution standards to maintain the same volume. Protein precipitation was carried out by the addition of a 3-fold volume of acetonitrile, followed by vortex mixing and centrifugation (RCF=9391×g) for 3 min to recover the supernatant for analysis.
Replicate analysis: Triplicate analytical replicate (ARs) samples were prepared similarly to the standards for each sample type at three concentrations (50, 500 and 2,000 ng/mL) and repeat injections of these ARs were included throughout the analytical run to assess assay performance. The extraction of the test compound from the standards and ARs were conducted as described above. […]

[2] = IP 10 mg/kg, 0.083 h, individual mice
[3] = IP 10 mg/kg, 0.5 h, individual mice
[4] = IP 10 mg/kg, 4 h, individual mice
[5] = male, C57BL/6, mouse, plasma, IP 10 mg/kg

Compound `COc1ccc2cccc(CCN(C)C3CC3)c2c1` [Example I-15, N-(2-(7-methoxynaphthalen-1-yl)ethyl)-N-methylcyclopropanamine] has an Emax (5-HT2A) of 70%, an EC50 (5-HT2A; read-out: 5-HT2A EC50) of 0.133 µM and an Emax (5-HT2C) of 65%. The EC50 (5-HT2C; read-out: 5-HT2C EC50) was 0.292 µM, the “Brain AUC0-4 h” value ([1]; IP 10 mg/kg) was 13800 nM·h and the “B:P Ratio Individual” value [1, 2] was 6.9 and 6.7. The “Plasma Concentration (μM) Individual” value [1, 2] was 1.38 µM and 1.48 µM, the concentration at 0.5 h ([1]; IP 10 mg/kg, 0.083 h, individual mice, read-out: Brain Parenchyma Concentration (μM) Individual) was 9.59 µM and 9.89 µM and the “B:P Ratio Individual” value [1, 3] was 8.2 and 8.1. For the same compound, the “Plasma Concentration (μM) Individual” value [1, 3] was 0.932 µM and 0.820 µM, the concentration at 0.5 h ([1]; IP 10 mg/kg, 0.5 h, individual mice, read-out: Brain Parenchyma Concentration (μM) Individual) was 7.6 µM and 6.64 µM and the “B:P Ratio Individual” value [1, 4] was 9.3 and 7.5. The “Plasma Concentration (μM) Individual” value [1, 4] was 0.0701 µM and 0.151 µM and 0.101 µM, the concentration at 0.5 h ([1]; IP 10 mg/kg, 4 h, individual mice, read-out: Brain Parenchyma Concentration (μM) Individual) was 0.553 µM and 1.41 µM and 0.755 µM and the concentration at 0.083 h ([1]; male, C57BL/6, mouse, brain, ip, 0.083 h, individual mice, read-out: Brain Parenchyma Concentration (μM) Individual) was 16.9 µM. For the same compound, the concentration at 0.083 h ([1]; male, C57BL/6, mouse, brain, ip, 0.083 h, n = 3, read-out: Brain Parenchyma Concentration (μM) Mean ± SD) was 12.1 ± 4.14 µM, the concentration at 0.5 h ([1]; male, C57BL/6, mouse, brain, ip, 0.5 h, individual mice, read-out: Brain Parenchyma Concentration (μM) Individual) was 4.3 µM and the concentration at 0.5 h ([1]; male, C57BL/6, mouse, brain, ip, 0.5 h, n = 3, read-out: Brain Parenchyma Concentration (μM) Mean ± SD) was 6.18 ± 1.7 µM. It also gave a concentration at 4 h ([1]; male, C57BL/6, mouse, brain, ip, 4 h, n = 3, read-out: Brain Parenchyma Concentration (μM) Mean ± SD) of 0.905 ± 0.446 µM, a Kp at 0.083 h ([1]; male, C57BL/6, mouse, ip, 0.083 h, individual mice, read-out: B:P Ratio Individual) of 7.3 and a Kp at 0.083 h ([1]; male, C57BL/6, mouse, ip, 0.083 h, n = 3, read-out: B:P Ratio Mean ± SD) of 7 ± 0.33. For the same compound, the Kp at 0.5 h ([1]; male, C57BL/6, mouse, ip, 0.5 h, individual mice, read-out: B:P Ratio Individual) was 6, the Kp at 0.5 h ([1]; male, C57BL/6, mouse, ip, 0.5 h, n = 3, read-out: B:P Ratio Mean ± SD) was 7.4 ± 1.2 and the Kp at 4 h ([1]; male, C57BL/6, mouse, ip, 4 h, individual mice, read-out: B:P Ratio Individual) was 7.9. The Kp at 4 h ([1]; male, C57BL/6, mouse, ip, 4 h, n = 3, read-out: B:P Ratio Mean ± SD) was 8.2 ± 1, the Kp ([1]; male, C57BL/6, mouse, ip, (fu, brain * AUCbrain, 0-4 h)/(fu, plasma * AUCplasma, 0-4 h), read-out: (Unbound) time-averaged B:P) was 2 and the Kp ([1]; male, C57BL/6, mouse, ip, AUCbrain, 0-4 h/AUCplasma, 0-4 h, read-out: (Total) time-averaged B:P) was 8.1. It also gave a concentration at 0.083 h ([1]; male, C57BL/6, mouse, plasma, ip, 0.083 h, individual mice, read-out: Plasma Concentration (μM) Individual) of 2.3 µM, a concentration at 0.083 h ([1]; male, C57BL/6, mouse, plasma, ip, 0.083 h, n = 3, read-out: Plasma Concentration (μM) Mean ± SD) of 1.72 ± 0.506 µM and a concentration at 0.5 h ([1]; male, C57BL/6, mouse, plasma, ip, 0.5 h, individual mice, read-out: Plasma Concentration (μM) Individual) of 0.718 µM. The concentration at 0.5 h ([1]; male, C57BL/6, mouse, plasma, ip, 0.5 h, n = 3, read-out: Plasma Concentration (μM) Mean ± SD) was 0.823 ± 0.107 µM, the concentration at 4 h ([1]; male, C57BL/6, mouse, plasma, ip, 4 h, n = 3, read-out: Plasma Concentration (μM) Mean ± SD) was 0.107 ± 0.0406 µM and the Cmax [1, 5] was 1.72 µM. For the same compound, the Tmax [1, 5] was 5 min, the AUC(0-t) ([1]; male, C57BL/6, mouse, plasma, IP 10 mg/kg, read-out: Plasma AUC0-4 h) was 1710 nM·h and the AUC(0-inf) ([1]; male, C57BL/6, mouse, plasma, IP 10 mg/kg, read-out: Plasma AUC0-inf) was 1900 nM·h. For the same compound, the half-life ([1]; male, C57BL/6, mouse, IP 10 mg/kg, plasma, read-out: Apparent t1/2 (converted)) was 72 min.
